Assay results: US9433211B2, “Antimicrobial agent” (TAIYO CORPORATION, priority 2012, dated 2016)
≈ marks a conversion by molar mass, not a printed value.

Tests used:
[1] = system: black mold (A. niger, JCM10254); test: Verification test of antimicrobial effects (minimum inhibitory concentration) on black mold; assay type: cell-based; conditions: for Minimum inhibitory concentration / MIC: A. niger, cultured at 30° C. aerobic four days, visual turbidity, 156-2500 ppm tested; for MIC: Aspergillus niger, JCM10254, 96 h; for antimicrobial activities, comparison in words: against black mold (A. niger), from the results in Table 1
Experimental: (§1) 0.5 ml of a previously sterilized culture medium (trade name “Potato dextrose liquid culture medium”, made by Nissui Pharmaceutical Co., Ltd. was placed into a 96-well deep type microplate, then the propanediol mono-β-hydroxycarboxylic acid esters (the present invention products 1 to 10), the glycerin mono β-hydroxydecanoic acid ester (comparative product 1), the β-hydroxydecanoic acid potassium (comparative product 2) prepared in the above descriptions of (1) to (5) as well as 1,2-octanediol (comparative product 3), 1,2-propanediol (comparative product 4) and 1,3-propanediol (comparative product 5) known as an auxiliary antiseptic agent for external preparations for skin were respectively added, and the culture medium was diluted in a step-wise manner so that the final concentration in the medium was 156 ppm, 312 ppm, 625 ppm, 1250 ppm, and 2500 ppm to prepare sample solutions.
(§2) To these sample solutions, 0.1 ml of each culture solution of blackmold (A. niger, JCM10254) and yeast (C. albicans, NBRC1594) at approximately 1×10^6 CFU/ml were added, and the solutions were cultured at 30° C. under an aerobic condition for four days. Antimicrobial effects were visually determined. The solutions were compared with test areas in which the above microorganisms had not been added. Test areas in which no turbidity due to growth of the microorganism was observed were determined to have antimicrobial effects, and the lowest concentration necessary for inhibiting the growth of the microorganism (hereinafter referred to as “minimum inhibitory concentration”) was measured.

[2] = system: yeast (C. albicans, NBRC1594); test: Verification test of antimicrobial effects (minimum inhibitory concentration) on yeast; assay type: cell-based; conditions: for Minimum inhibitory concentration / MIC: C. albicans, cultured at 30° C. aerobic four days, visual turbidity, 156-2500 ppm tested; for MIC: 96 h; for antimicrobial activities, comparison in words: against yeast (C. albicans), from the results in Table 1
Experimental: as §1, §2

[3] = Compounding property in cosmetic, pharmaceutical and industrial formulations; assay type: physicochemical; conditions: 0.30 weight %
Experimental: Glycerin, DPG, POE (60) hydrogenated castor oil, and 1,3-propanediol mono-β-hydroxydecanoic acid ester were mixed and dissolved by being heated to 70° C. (the resulting mixture was referred to as a mixture A). On the other hand, citrate acid Na, citric acid, glycine, alanine, hyaluronic acid Na, and water were individually mixed at room temperature (the resulting mixture was referred to as a mixture B). Then, the mixture A and the mixture B were combined and mixed at 50° C., and thus a lotion was obtained.
Cetanol, squalane, stearic acid, γ-tocopherol, BHT, polyethylene glycol monostearate (25EO), glycerin stearic acid monoester, and 1,3-propanediol mono-β-hydroxydecanoic acid ester were individually mixed and dissolved by being heated to 70° C. (the resulting mixture was referred to as a mixture A). On the other hand, 1,3-butanediol, carboxy vinyl polymer, and potassium hydroxide were individually mixed at room temperature (the resulting mixture was referred to as a mixture B). Then, the mixture A and the mixture B were combined and heated to 60° C. and were vigorously stirred and emulsified while being gradually added in small quantities to the purified water, and thus a milky lotion was obtained.
With regard to the compounding example 6, pantothenic acid, hyaluronic acid, thioxolone, hydrocortisone acetate, tocopherol, and minoxidil were mixed individually and dissolved by being heated to 70° C. (the resulting mixture was referred to as a mixture A). On the other hand, glycerin, polyoxyethylene glycol monoether, ethanol, and the present invention product 8 (1,3-propanediol mono-β-hydroxydecanoic acid ester) were mixed at room temperature (the resulting mixture was referred to as a mixture B). Then, the mixture A and the mixture B were combined and heated to 70° C. and were vigorously stirred while being added gradually in small quantities to water, and thus a hair growth liquid was obtained.
In preparing the compounding example 11, polyoxyethylene nonylphenylether, polyoxyethylene sorbitan monosterate, BHT, and fragrant material were mixed individually and dissolved by being heated to 80° C. (the resulting mixture was referred to as a mixture A). On the other hand, gellan gum, propylene glycol, the present invention product 8 (1,3-propanediol mono-β-hydroxydecanoic acid ester), and water were mixed at 80° C. (the resulting mixture was referred to as a mixture B). Then, the mixture B was gradually added in small quantities to the mixture A, heated to 80° C., and were vigorously stirred, and thus a transparent aqueous aromatic agent for vehicles was obtained.

[4] = hair growth liquid (compounding example 6)
[5] = transparent aqueous aromatic agent for vehicles (compounding example 11)

Structure (SMILES)	Minimum inhibitory concentration [1] [ppm]	Minimum inhibitory concentration [2] [ppm]	MIC [1] [µg/mL]	MIC [2] [µg/mL]	antimicrobial activities, comparison in words [2]	also measured
CCCCCCCC(O)CC(=O)OCC(O)CO (stereo not drawn) [Comparative product 1, glycerin mono β-hydroxydecanoic acid ester, reference compound]	2500	>2500	–	–	–	–
CCCCCCCC(O)CC(=O)O.[K] (stereo not drawn) [Comparative product 2, β-hydroxydecanoic acid potassium, reference compound]	–	–	1250	2500	–	–
CCCCCCC(O)CO (stereo not shown) [Comparative product 3, 1,2-octanediol, reference compound]	–	–	2500 (≈ 17100 µM)	2500 (≈ 17100 µM)	–	–
CC(O)CO (stereo not shown) [Comparative product 4, 1,2-propanediol, reference compound]	>2500	>2500	–	–	lower antimicrobial activities	antimicrobial activities, comparison in words [1]: lower antimicrobial activities
OCCCO [Comparative product 5, 1,3-propanediol, reference compound]	>2500	>2500	–	–	lower antimicrobial activities	antimicrobial activities, comparison in words [1]: lower antimicrobial activities
CCCCCCCCCC(O)CC(=O)OCC(C)O (stereo not drawn) [Present invention product 1, 1,2-propanediol mono-β-hydroxydodecanoic acid ester]	–	–	312 (≈ 1140 µM)	312 (≈ 1140 µM)	–	–
CCCCCCCCC(O)CC(=O)OCC(C)O (stereo not drawn) [Present invention product 2, 1,2-propanediol mono-β-hydroxyundecanoic acid ester]	–	–	312 (≈ 1200 µM)	312 (≈ 1200 µM)	–	–
CCCCCCCC(O)CC(=O)OCC(C)O (stereo not drawn) [Present invention product 3, 1,2-propanediol mono-β-hydroxydecanoic acid ester]	–	–	312 (≈ 1270 µM)	625 (≈ 2540 µM)	very stronger antimicrobial activities	antimicrobial activities, comparison in words [1]: very stronger antimicrobial activities
CCCCCCC(O)CC(=O)OCC(C)O (stereo not drawn) [Present invention product 4, 1,2-propanediol mono-β-hydroxynonanoic acid ester]	1250	1250	–	–	–	–
CCCCCC(O)CC(=O)OCC(C)O (stereo not drawn) [Present invention product 5, 1,2-propanediol mono-β-hydroxyoctanoic acid ester]	2500	>2500	–	–	lower than 1,2-octanediol	–
CCCCCCCCCC(O)CC(=O)OCCCO (stereo not drawn) [Present invention product 6, 1,3-propanediol mono-β-hydroxydodecanoic acid ester]	–	–	156 (≈ 569 µM)	312 (≈ 1140 µM)	–	–
CCCCCCCCC(O)CC(=O)OCCCO (stereo not drawn) [Present invention product 7, 1,3-propanediol mono-β-hydroxyundecanoic acid ester]	–	–	312 (≈ 1200 µM)	312 (≈ 1200 µM)	–	–
CCCCCCCC(O)CC(=O)OCCCO (stereo not drawn) [Present invention product 8, 1,3-propanediol mono-β-hydroxydecanoic acid ester]	–	–	312 (≈ 1270 µM)	625 (≈ 2540 µM)	very stronger antimicrobial activities	antimicrobial activities, comparison in words [1]: very stronger antimicrobial activities; compounding property: mixing with other components [3, 4]: easily mixed with other components; compounding property: turbidity or precipitation in the obtained product [3, 4]: not found; compounding property: mixing with other components ([3]; lotion): easily mixed with other components; compounding property: turbidity or precipitation in the obtained product ([3]; lotion): not found; compounding property: mixing with other components [3, 5]: easily mixed with other components; compounding property: turbidity or precipitation in the obtained product [3, 5]: not found
CCCCCCC(O)CC(=O)OCCCO (stereo not drawn) [Present invention product 9, 1,3-propanediol mono-β-hydroxynonanoic acid ester]	1250	1250	–	–	–	–
CCCCCC(O)CC(=O)OCCCO (stereo not drawn) [Present invention product 10, 1,3-propanediol mono-β-hydroxyoctanoic acid ester]	2500	>2500	–	–	lower than 1,2-octanediol	–
